# From ChEMBL document CHEMBL1201862, “PubChem BioAssay data set” (2004)
# Calls of active or inactive are those of the source.
# Legend:
# [1] = molecular target: T1, Low molecular weight phosphotyrosine protein phosphatase (Homo sapiens, UniProt P24666); format: functional; conditions: read-out: IC50_Mean
# T1 sequence (P24666 whole entry): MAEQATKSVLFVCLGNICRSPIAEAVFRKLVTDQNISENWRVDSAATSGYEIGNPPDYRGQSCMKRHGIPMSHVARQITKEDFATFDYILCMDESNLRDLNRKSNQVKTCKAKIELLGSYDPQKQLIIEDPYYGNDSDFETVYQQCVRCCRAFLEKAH
# [2] = molecular target: T1, Low molecular weight phosphotyrosine protein phosphatase; format: functional; conditions: read-out: IC50_Mean; remark: listed apart in the source
# [3] = molecular target: T2, Tyrosine-protein phosphatase non-receptor type 22 (Homo sapiens, UniProt Q9Y2R2); assay: PTPN22 enzyme inhibitors – biochemical, fluorescence, LYP catalytic domain, selectivity assay for LMPTP inhibitor project, dose response (AID 652006); format: functional; conditions: read-out: IC50_Mean
# T2 sequence (Q9Y2R2 whole entry): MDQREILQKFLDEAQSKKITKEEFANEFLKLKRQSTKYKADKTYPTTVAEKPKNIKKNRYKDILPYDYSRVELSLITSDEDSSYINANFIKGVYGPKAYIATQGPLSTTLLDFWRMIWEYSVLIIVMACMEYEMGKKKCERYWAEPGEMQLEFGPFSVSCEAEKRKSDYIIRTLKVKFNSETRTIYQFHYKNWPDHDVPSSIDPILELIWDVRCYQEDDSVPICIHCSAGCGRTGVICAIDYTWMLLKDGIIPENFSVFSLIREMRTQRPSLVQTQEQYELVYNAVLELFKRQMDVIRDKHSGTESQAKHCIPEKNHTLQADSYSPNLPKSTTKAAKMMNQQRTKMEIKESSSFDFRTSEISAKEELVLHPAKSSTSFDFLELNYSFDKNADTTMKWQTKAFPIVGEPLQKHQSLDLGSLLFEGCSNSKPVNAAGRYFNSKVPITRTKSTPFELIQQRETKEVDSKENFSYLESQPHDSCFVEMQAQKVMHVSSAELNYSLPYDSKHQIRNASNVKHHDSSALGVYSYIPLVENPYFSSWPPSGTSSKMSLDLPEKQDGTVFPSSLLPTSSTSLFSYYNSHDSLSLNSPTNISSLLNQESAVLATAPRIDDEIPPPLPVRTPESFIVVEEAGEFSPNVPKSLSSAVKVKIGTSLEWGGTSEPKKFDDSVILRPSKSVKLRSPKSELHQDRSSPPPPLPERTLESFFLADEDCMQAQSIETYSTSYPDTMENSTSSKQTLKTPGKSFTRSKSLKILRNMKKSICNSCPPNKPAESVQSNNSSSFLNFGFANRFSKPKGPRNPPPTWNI
# [4] = molecular target: T3, Neuropeptides B/W receptor type 1 (Homo sapiens, UniProt P48145); assay: human NPBW1 receptor blockade, IC50 – cell-based, fluorescence, dose response, set 5, late-stage follow-up (AID 588566); format: functional
# T3 sequence (P48145 whole entry): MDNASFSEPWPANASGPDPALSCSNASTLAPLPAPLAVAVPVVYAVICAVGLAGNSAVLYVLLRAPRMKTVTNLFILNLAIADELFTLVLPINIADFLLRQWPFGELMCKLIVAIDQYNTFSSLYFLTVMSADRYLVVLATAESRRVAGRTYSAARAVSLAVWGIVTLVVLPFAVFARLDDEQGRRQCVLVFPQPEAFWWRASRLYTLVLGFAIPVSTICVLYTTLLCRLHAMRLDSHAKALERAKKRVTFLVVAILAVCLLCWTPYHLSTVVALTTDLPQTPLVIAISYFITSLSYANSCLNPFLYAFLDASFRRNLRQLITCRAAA
# [5] = molecular target: Melanin-concentrating hormone receptor 1 (Homo sapiens, UniProt Q99705); assay: Late-stage fluorescence-based counterscreen for antagonists of the G-protein coupled receptor 7 (GPR7): cell-based dose response assay to identify antagonists of the melanin-concentrating hormone receptor 1 (MCHR1) Set 5.; format: functional
# Sequence of Melanin-concentrating hormone receptor 1 (Q99705 whole entry): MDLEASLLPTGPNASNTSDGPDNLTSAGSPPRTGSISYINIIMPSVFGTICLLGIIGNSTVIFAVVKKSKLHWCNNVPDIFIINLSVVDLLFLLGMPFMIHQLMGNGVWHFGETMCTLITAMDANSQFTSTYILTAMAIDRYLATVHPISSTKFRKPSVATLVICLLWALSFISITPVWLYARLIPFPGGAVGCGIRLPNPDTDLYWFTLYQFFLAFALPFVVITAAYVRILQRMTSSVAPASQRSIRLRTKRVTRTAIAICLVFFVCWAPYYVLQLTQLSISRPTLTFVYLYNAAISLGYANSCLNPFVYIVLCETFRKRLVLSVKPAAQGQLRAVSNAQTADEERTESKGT
# [6] = tested on: CHO-K1; assay: (§1) Counterscreen for antagonists of the orexin 1 receptor (OX1R; HCRTR1): Homogeneous time resolved fluorescence (HTRF)-based cell-based dose response assay to identify antagonists of the parental CHO-K1 cell line. [Related pubchem assays (depositor defined):AID434989, AID435008, AID463079, AID485270, AID492963, AID492964, AID492965, AID493232, AID504699, AID504701]; format: functional; conditions: Cricetulus griseus
# [7] = as §1, with “Fluorescence-based” for “Homogeneous time resolved fluorescence (HTRF)-based”, “cell-based high throughput” for “cell-based”, “CHO” for “CHO-K1”; format: functional
# [8] = molecular target: T4, Orexin/Hypocretin receptor type 1 (Homo sapiens, UniProt O43613); assay: Homogeneous Time Resolved Fluorescence (HTRF)-based cell-based high throughput dose response assay for antagonists of the orexin 1 receptor (OX1R; HCRTR1). [Related pubchem assays (depositor defined):AID434989, AID435008, AID463079, AID485270, AID492963, AID492964, AID492965, AID493232, AID504717, AID504718]; format: functional
# T4 sequence (O43613 whole entry): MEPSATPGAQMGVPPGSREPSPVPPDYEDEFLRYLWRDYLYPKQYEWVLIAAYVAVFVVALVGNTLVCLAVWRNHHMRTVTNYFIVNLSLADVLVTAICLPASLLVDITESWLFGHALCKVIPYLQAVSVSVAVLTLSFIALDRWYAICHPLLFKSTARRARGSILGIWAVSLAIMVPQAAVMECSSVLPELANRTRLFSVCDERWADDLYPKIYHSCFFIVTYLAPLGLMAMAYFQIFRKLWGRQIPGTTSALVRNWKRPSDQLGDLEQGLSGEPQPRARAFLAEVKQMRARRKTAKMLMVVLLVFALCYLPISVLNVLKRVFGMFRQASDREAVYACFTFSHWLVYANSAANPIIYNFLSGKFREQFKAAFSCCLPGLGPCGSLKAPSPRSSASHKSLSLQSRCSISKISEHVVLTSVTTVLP
# [9] = molecular target: T4, Orexin/Hypocretin receptor type 1; assay: Fluorescence-based cell-based high throughput dose response assay for antagonists of the orexin 1 receptor (OX1R; HCRTR1). [Related pubchem assays (depositor defined):AID434989, AID435008, AID463079, AID485270, AID492963, AID492964, AID492965, AID493232, AID504717, AID504718]; format: functional
# [10] = molecular target: T5, Orexin receptor type 2 (Homo sapiens, UniProt O43614); assay: Counterscreen assay for antagonists of the orexin 1 receptor (OX1R; HCRTR1): Fluorescence-based cell-based dose response assay for antagonists of the orexin 2 receptor (OX2R; HCRTR2), run by assay provider.; format: functional
# T5 sequence (O43614 whole entry): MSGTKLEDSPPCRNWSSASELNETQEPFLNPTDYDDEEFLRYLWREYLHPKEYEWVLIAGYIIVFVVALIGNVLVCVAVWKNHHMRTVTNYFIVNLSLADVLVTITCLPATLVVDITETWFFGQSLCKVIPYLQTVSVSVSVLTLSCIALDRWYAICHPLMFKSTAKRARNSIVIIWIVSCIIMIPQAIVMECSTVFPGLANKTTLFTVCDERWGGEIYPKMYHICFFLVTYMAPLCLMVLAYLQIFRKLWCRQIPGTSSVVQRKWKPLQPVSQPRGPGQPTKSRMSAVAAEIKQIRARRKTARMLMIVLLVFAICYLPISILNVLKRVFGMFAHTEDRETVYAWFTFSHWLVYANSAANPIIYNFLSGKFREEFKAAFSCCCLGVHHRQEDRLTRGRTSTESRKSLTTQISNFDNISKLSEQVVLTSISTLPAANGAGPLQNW
# [11] = molecular target: T5, Orexin receptor type 2; assay: Counterscreen assay for antagonists of the orexin 1 receptor (OX1R; HCRTR1): Homogeneous Time Resolved Fluorescence (HTRF)-based cell-based dose response assay for antagonists of the orexin 2 receptor (OX2R; HCRTR2), run by assay provider.; format: functional
# [12] = tested on: Streptococcus sp. 'group A'; assay: Streptococcus pyogenes SK(-)GAS viability under kanamycin – luminescence, BacTiterGlo, confirmation, counter-screen for streptokinase expression inhibitor project, dose response (AID 1900); format: functional, organism-based
# [13] = molecular target: T6, Streptokinase A (Streptococcus pyogenes serotype M1, UniProt P10520); assay: viability-normalized secreted streptokinase activity reduction – plasminogen activation absorbance, OD405, dose response (AID 1914); format: functional, Streptococcus pyogenes M1 GAS;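 also: secreted streptokinase activity via plasminogen activation per viability signal from cell pellet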
# T6 sequence (P10520 whole entry): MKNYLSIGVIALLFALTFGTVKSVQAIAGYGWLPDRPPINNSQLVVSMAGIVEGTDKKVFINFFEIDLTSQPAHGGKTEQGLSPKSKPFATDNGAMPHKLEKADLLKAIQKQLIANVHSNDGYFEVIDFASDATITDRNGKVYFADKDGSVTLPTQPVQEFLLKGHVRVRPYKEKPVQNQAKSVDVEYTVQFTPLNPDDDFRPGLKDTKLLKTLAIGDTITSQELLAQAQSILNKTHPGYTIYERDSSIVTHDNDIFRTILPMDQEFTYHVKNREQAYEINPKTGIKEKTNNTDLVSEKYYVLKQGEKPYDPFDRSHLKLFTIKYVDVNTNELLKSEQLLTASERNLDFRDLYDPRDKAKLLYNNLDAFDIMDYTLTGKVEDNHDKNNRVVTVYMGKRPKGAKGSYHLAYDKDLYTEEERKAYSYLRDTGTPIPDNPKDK
# [14] = tested on: Streptococcus; assay: GAS UMAA2166 growth inhibition – luminescence, BacTiterGlo, counter-screen for streptokinase expression inhibitor project, dose response (AID 1915); format: functional, organism-based;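 also: potency for reduction of bacterial viability or growth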
Structure (SMILES),IC50 [4],IC50 [5],IC50 [6],IC50 [7],IC50 [8],IC50 [9],IC50 [10],IC50 [11],also measured
O=C(N/N=C\C=C\c1ccc(Br)cc1)c1ccc2c(c1)OCO2,–,–,–,–,–,–,–,–,IC50 [1]: 7.43 µM (active); IC50 [2]: 11.6 µM (active); IC50 [3]: 23.5 µM (inactive)
CCOC(=O)C(C(=O)OCC)c1c(Cl)cnn(Cc2cccc3ccccc23)c1=O,3.77 µM (active),4.03 µM (active),–,–,–,–,–,–,–
COc1ccc([C@@H]2CC=C(C(=O)O)[C@H](c3cccc(Cl)c3)N2S(=O)(=O)c2ccccc2C)cc1,–,–,> 66.2 µM (inactive),> 49.7 µM (inactive),1.09 µM (active),14.6 µM (inactive),17.1 µM (inactive),3.32 µM (active),–
Cc1cnc(NC(=O)c2cc3c(C)nn(-c4ccccc4)c3s2)s1,–,–,> 66.2 µM (inactive),> 49.7 µM (inactive),2.21 µM (active),2.37 µM (active),60.4 µM (inactive),> 50 µM (inactive),EC50 [12]: 2.5 µM (active); EC50 [13]: > 150 µM (not active); EC50 [14]: > 150 µM (not active)
COc1ccc(Oc2c(Cl)cnn(C(C)c3ccccc3C)c2=O)cc1 (configuration not stated),8.01 µM (active),9.16 µM (active),–,–,–,–,–,–,–
